Where a name gives a salt, the structure may show the parent alone.
How the values were obtained:
[1] = In vivo drug release study (plasma DMF by HPLC after SC injection); design: species or system Albino Wistar rats; conditions: rats, S.C.
Procedure: In vivo drug release study was also performed. Albino Wistar rats (275-300 g) were used in the study. Sterile polypropylene cages with paddy husk were used for the housing of experimental animals. Standard food pellets were given to the animals with water ad libitum. Uses of experimental animal were approved by the IAEC (JSSCP, S. S. Nagar, Mysore, India Code No: 132/2013) and for all the purpose of animal welfare the CPCSEA guidelines were followed.
The experimental animals were separated into groups of three and each group consisted of three animals. […] For injecting 0.5 mL of injectable gel, a syringe of 1 mL with the needle of 26-gauge was used.
For the In-vivo detection of Dimethyl Fumarate, an aliquot of blood was drawn from retro orbital sinus of each rat at specified blood collection times. 1.5 mL aliquot of blood from retro orbital sinus was collected in an EDTA coated Eppendorf tube. The tubes were centrifuged at 4° C. and 8000 rpm for 10 min to collect plasma. Plasma was separated into a separate eppendorf tube. Until the screening or assay of plasma samples by using HPLC, the sample was stored at −20° C.
All animals remained in good health throughout the acclimatization and study periods. The cumulative (±SD) plasma concentrations of DMF at the times of sample collection after SC are plotted in FIG. 8. Drug concentration was determined by using HPLC method. […]

[2] = test system: rat subcutaneous tissue; assay: Tissue biocompatibility study of DMF ISFI system (physical inspection for inflammation); type: in vivo, rats; conditions: SC injection; visual observation
Procedure: Tissue biocompatibility study of DMF ISFI system was performed. Mice were separated into three groups i.e., positive control group, test group, negative control group and each group consist of three animals to assess the DMF and ISFI biocompatibility. All of the three groups received different drugs like first group received phosphate buffer of pH 7.4 dispersed DMF, test group was given both drug DMF with the ISFI and the last group were given only ISFI. For all physical signs of inflammation, all the animals were visually observed. Produces responses in experimental animals were graded as 0 for normal, + for mild symptoms, ++ for moderate and +++ used for the severe symptoms. After injecting the drugs in animals, one mouse per group was sacrificed at the interval of 3rd day, 7th day and 14th days. The adjacent tissues were excised and fixed in 10% formalin tamped with phosphate buffer. The tissue was under the observation of optical microscope after the hematoxylin and eosin staining process for the changes in acute inflammatory responses, fibrosis and foreign body reaction. (Anderson and Langone, 1999 and Park and Park, 1999).

- plasma concentration (final level) ([1]; pure drug 1 mg/0.2 mL, group III): non-detectable quantities
- time after which plasma concentration falls ([1]; pure drug 2 mg/0.2 mL, Group I): 150 h
- inflammatory reaction at physical inspection [2]: highest inflammation
SMILES: COC(=O)/C=C/C(=O)OC [DMF, Dimethyl fumarate]

Reference: US11590071B2, “Injectable drug delivery implant composition and method of use thereof” (King Abdulaziz University, priority 2021, dated 2023)
